# Measured values taken from patent US8299073B2, “P38 MAP kinase inhibitors” (Respivert Ltd., priority 2008, dated 2012).
# Assays:
# [1] = test system: Differentiated U937 cells; assay: MTT assay (loss of cell viability); type: cell-based, human; conditions: loss of cell viability, 10 ug/ml
# Method: Differentiated U937 cells were pre-incubated with compound for 4 hrs in 5% FCS or 10% FCS for 24 hrs and 72 hr. The supernatant was replaced with 200 ul of new media and 10 μL of MTT stock solution (5 mg/mL) added to each well. After 1 hr incubation, the media were removed, 200 μL of DMSO added to each well and the plates were shaken lightly for 1 hr prior to reading the absorbance at 550 nm.
# The percentage loss of cell viability was calculated for each well relative to vehicle (0.5% DMSO)-treatment. Consequently an apparent increase in cell viability for drug treatment relative to vehicle is tabulated as a negative percentage.
# [2] = target: T1, recombinant, phosphorylated p38 MAPK gamma (MAPK12:Millipore) (Homo sapiens, UniProt P53778); assay: Enzyme inhibition assay (FRET, Z-LYTE), p38 MAPK gamma; type: biochemical; conditions: read-out: IC50 values P38γ enzyme
# T1 construct: purchased Millipore
# T1 sequence (P53778 1-367): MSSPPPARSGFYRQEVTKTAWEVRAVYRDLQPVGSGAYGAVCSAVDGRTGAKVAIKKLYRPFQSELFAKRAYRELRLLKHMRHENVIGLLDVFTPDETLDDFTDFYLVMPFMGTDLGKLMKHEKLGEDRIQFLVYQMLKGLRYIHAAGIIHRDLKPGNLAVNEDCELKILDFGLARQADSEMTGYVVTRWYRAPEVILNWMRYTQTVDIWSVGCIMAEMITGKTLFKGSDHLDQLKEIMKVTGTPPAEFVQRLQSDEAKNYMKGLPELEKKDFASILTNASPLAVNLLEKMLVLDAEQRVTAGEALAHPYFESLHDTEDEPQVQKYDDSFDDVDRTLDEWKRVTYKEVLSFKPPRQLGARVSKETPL
# Method: The enzyme inhibitory activity of compound was determined by fluorescence resonance energy transfer (FRET) using synthetic peptides labelled with both donor and acceptor fluorophores (Z-LYTE, Invitrogen). Briefly, recombinant, phosphorylated p38 MAPK gamma (MAPK12:Millipore) was diluted in HEPES buffer, mixed with compound at desired final concentrations and incubated for two hours at room temperature. The FRET peptide (2 μM) and ATP (100 uM) were next added to the enzyme/compound mixture and incubated for one hour. Development reagent (protease) was added for one hour prior to detection in a fluorescence microplate reader. The site-specific protease only cleaves non-phosphorylated peptide and eliminates the FRET signal. Phosphorylation levels of each reaction were calculated using the ratio of coumarin emission (donor) over fluorescein emission (acceptor) with high ratios indicating high phosphorylation and low ratios, low phosphorylation levels.
# [3] = target: T2, p38 MAPK alpha (MAPK14: Invitrogen) (Homo sapiens, UniProt Q16539); assay: Enzyme inhibition assay (FRET, Z-LYTE), p38 MAPK alpha, via activation of MAPKAP-K2; type: biochemical; conditions: read-out: IC50 values p38α enzyme
# T2 construct: purchased Invitrogen
# T2 sequence (Q16539 whole entry): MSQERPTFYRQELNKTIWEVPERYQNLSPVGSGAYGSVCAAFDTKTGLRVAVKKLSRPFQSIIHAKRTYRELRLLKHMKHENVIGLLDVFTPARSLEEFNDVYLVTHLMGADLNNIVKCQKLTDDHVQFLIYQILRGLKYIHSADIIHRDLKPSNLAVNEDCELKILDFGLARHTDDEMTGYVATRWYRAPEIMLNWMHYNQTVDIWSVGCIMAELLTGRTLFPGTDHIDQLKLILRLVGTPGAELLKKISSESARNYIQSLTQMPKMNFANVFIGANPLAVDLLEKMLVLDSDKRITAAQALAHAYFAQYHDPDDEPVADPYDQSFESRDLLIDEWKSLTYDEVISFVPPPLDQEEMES
# [4] = test system: LPS-induced TNFα release in differentiated U937 cells; assay: LPS-induced TNF alpha release in differentiated U937 cells; type: cell-based; conditions: Homo sapiens; read-out: R-EC50 values d-U937 cells
# Method: U937 cells, human monocytic cell line, were differentiated to macrophage-type cells by incubation with phorbol myristate acetate (PMA; 100 ng/ml) for 48 to 72 hours. Where appropriate, cells were pre-incubated with final concentrations of compound for 2 hrs. Cells were then stimulated with 0.1 μg/mL of LPS (from E. coli: O111:B4, Sigma) for 4 hrs, and the supernatant collected for determination of TNFα concentration by sandwich ELISA (Duo-set, R&D systems).
# [5] = test system: LPS-induced TNFα release in THP-1 cells; assay: LPS-induced TNF alpha release in THP-1 cells; type: cell-based; conditions: Homo sapiens, THP-1; LPS-induced TNFα release; read-out: IC50 values THP-1 cells
# Method: THP-1, human monocytic cell line, was also used for this assay. THP-1 cells were stimulated with 1 μg/ml of LPS (from E. coli: O111:B4, Sigma) for 4 hrs, and the supernatant collected for determination of TNFα concentration.
# THP-1 cells, a human monocytic cell line, were stimulated with 1 μg/ml of LPS (from E. coli; O111:B4, Sigma) for 4 hr and the supernatant collected for determination of TNFα concentration by sandwich ELISA (Duo-set, R&D systems). The inhibition of TNFα production was calculated at each concentration by comparison with vehicle control.
# [6] = test system: ovalbumin-mediated lung function changes (sGaw); assay: Ovalbumin challenge/parainfluenza infection model; type: in vivo, Dunkin-Hartley guinea-pigs; conditions: nebulised, 1.5 mg per day; sensitized animals treated with PIV3 medium
# [7] = test system: neutrophil and macrophage accumulation into airways; assay: Cigarette smoke model; type: in vivo, A/J mice; conditions: 50 μg/ml (35 μl, bid, in); cigarette smoke exposed mice
# Method: A/J mice (males, 5 weeks old) were exposed to cigarette smoke (4% cigarette smoke, diluted with compressed air) for 30 min/day for 11 days using a Tobacco Smoke Inhalation Experiment System for small animals (Model SIS-CS; Sibata Scientific Technology, Tokyo, Japan). Test substances were given intra-nasally (35 μl of solution in 50% DMSO/PBS) and therapeutically twice daily for 3 days after the final cigarette smoke exposure. Twelve hours after the last dosing, animals were anesthetized, the trachea cannulated and bronchoalveolar lavage fluid (BALF) was collected. […] The results are shown in FIG. 3 for activated alveolar macrophages and in FIG. 4 for neutrophils. Data for cell numbers are shown as the mean±SEM. The cigarette smoke model used for this study is reported as a corticosteroid refractory system, ([…]. et al., (2008); J. Pharmacol. Exp.
Compound,MTT 4 hr [1],MTT 24 hr [1],IC50 [2] [nM],IC50 [3] [nM],EC50 [4] [nM],IC50 [5] [nM],effect on ovalbumin-mediated lung function changes [6],inhibition of neutrophil or macrophage accumulation into airways [7]
"COCC(=O)Nc1cc(OCCc2ccc(NC(=O)Nc3cc(C(C)(C)C)nn3-c3ccc(C)cc3)c3ccccc23)ccn1 [Example 43, N-(4-(2-(4-(3-(3-tert-butyl-1-p-tolyl-1H-pyrazol-5-yl)ureido)naphthalen-1-yl)ethoxy)pyridin-2-yl)-2-methoxyacetamide]",− (− <30%),− (− <30%),< 5000,< 500,< 500,< 500,–,–
"COCC(=O)Nc1cc(CC(C)Oc2ccc(NC(=O)Nc3cc(C(C)(C)C)nn3-c3ccc(C)cc3)c3ccccc23)ccn1 (centres unmarked) [Example 46, N-(4-(2-(4-(3-(3-tert-Butyl-1-p-tolyl-1H-pyrazol-5-yl)ureido)naphthalen-1-yloxy)propyl)pyridin-2-yl)-2-methoxyacetamide]",− (− <30%),− (− <30%),> 5000,< 500,< 500,< 500,–,–
"COCC(=O)Nc1cc(C(C)COc2ccc(NC(=O)Nc3cc(C(C)(C)C)nn3-c3ccc(C)cc3)c3ccccc23)ccn1 (centres unmarked) [Example 47, N-(4-(1-(4-(3-(3-tert-Butyl-1-p-tolyl-1H-pyrazol-5-yl)ureido)naphthalen-1-yloxy)propan-2-yl)pyridin-2-yl)-2-methoxyacetamide]",− (− <30%),− (− <30%),> 5000,< 500,< 10,< 10,–,–
"COCC(=O)Nc1cc(C(C)(C)COc2ccc(NC(=O)Nc3cc(C(C)(C)C)nn3-c3ccc(C)cc3)c3ccccc23)ccn1 [Example 48, N-(4-(1-(4-(3-(3-tert-Butyl-1-p-tolyl-1-pyrazol-5-yl)ureido)naphthalen-1-yloxy)-2-methylpropan-2-yl)pyridin-2-yl)-2-methoxyacetamide]",− (− <30%),− (− <30%),> 5000,< 500,< 500,< 500,–,–
"COCC(=O)Nc1cc(COc2ccc(NC(=O)Nc3cc(C(C)(C)C)nn3-c3ccc(CO)cc3)c3ccccc23)ccn1 [Example 49, N-(4-((4-(3-(3-tert-Butyl-1-(4-(hydroxymethyl)phenyl)-1H-pyrazol-5-yl)ureido)naphthalen-1-yloxy)methyl)pyridin-2-yl)-2-methoxyacetamide]",− (− <30%),+ (+ >30% at 10 ug/ml),< 500,< 10,< 10,< 500,–,–
"COCC(=O)Nc1nccc(COc2ccc(NC(=O)Nc3cc(C(C)(C)C)nn3-c3ccc(C)cc3)c3ccccc23)n1 [Example 50, N-(4-((4-(3-(3-tert-Butyl-1-p-tolyl-1H-pyrazol-5-yl)ureido)naphthalen-1-yloxy)methyl)pyrimidin-2-yl)-2-methoxyacetamide]",− (− <30%),− (− <30%),> 5000,< 10,< 10,< 500,–,–
CCC(=O)O[C@]1(C(=O)SCF)[C@H](C)C[C@H]2[C@@H]3C[C@H](F)C4=CC(=O)C=C[C@]4(C)[C@@]3(F)[C@@H](O)C[C@@]21C [fluticasone propionate],–,–,–,–,–,–,inhibited,did not inhibit
